The target in one data set is Wee1 kinase (h) (Homo sapiens, UniProt P30291). As to the kind of experiment: Wee1 kinase (h) detection method, [γ-33P]-ATP filter assay. The class given is biochemical. As to conditions: 10 μM ATP, 40 minutes at room temperature. Summed up: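 Radiometric filter-binding assay with human Wee1 in 20 mM Tris/HCl pH 8.5, 0.2 mM EDTA, 500 μM peptide substrate, 10 mM Mg acetate, 10 μM [γ-33P]-ATP; compounds at final 1, 0.1 or 0.01 μM. Reaction 40 min at room temperature, stopped with 0.5% phosphoric acid, spotted on P30 filtermat, scintillation counted, duplicates.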
Wee1 kinase (h), sequence (P30291 whole entry): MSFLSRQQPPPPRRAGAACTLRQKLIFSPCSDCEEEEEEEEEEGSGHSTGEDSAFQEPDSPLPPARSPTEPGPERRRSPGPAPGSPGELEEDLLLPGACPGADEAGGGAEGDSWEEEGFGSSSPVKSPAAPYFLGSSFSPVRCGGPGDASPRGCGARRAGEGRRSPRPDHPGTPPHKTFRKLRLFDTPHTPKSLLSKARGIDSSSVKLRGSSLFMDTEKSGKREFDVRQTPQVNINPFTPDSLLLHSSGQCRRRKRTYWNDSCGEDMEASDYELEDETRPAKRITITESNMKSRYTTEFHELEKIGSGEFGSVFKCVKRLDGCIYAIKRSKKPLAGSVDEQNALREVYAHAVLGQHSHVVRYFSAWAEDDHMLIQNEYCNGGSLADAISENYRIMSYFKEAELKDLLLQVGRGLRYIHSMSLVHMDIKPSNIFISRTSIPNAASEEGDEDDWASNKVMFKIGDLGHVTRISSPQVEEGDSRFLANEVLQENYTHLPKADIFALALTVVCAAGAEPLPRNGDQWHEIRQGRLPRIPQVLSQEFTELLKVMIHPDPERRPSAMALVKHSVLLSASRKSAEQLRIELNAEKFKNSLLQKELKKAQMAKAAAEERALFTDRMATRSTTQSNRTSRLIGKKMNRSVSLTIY

A further data set concerns LoVo cells. The data set is described as follows: MTT based cell viability assay on LoVo cells. The note with it: Homo sapiens, 72 h; LoVo cells, 3 d, MTT; read-out: IC50, growth inhibition on LoVo cells.
The next data set has as its system NCI-H1299 cells. The data set is described as follows: MTT based cell viability assay on NCI-H1299 cells. As to conditions: Homo sapiens, 72 h; NCI-H1299 cells, 3 d, MTT; read-out: IC50, growth inhibition on NCI-H1299 cells. Summed up:
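NCI-H1299 cells (1000/well) were plated overnight, then given a seven-point serial compound dilution plus DMSO control for 3 d at 37 °C, 5% CO2. Viability was read by MTT (0.5 mg/mL, 4 h, DMSO-solubilised) at 552/630/690 nm. IC50 came from a sigmoidal fit of survival versus concentration.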

Data set [1] relates to patients with advanced solid tumors. The note with it: cited from earlier work.
The mark [2] stands for this setting: of 176 evaluable patients, alone or in combination with chemotherapy.

pIC50: −log10 of the molar value. Read-outs that look alike come from different tables or passages of the source.

For `C=CCn1c(=O)c2cnc(Nc3ccc(N4CCN(C)CC4)cc3)nc2n1-c1cccc(C(C)(C)O)n1` [AZD1775], the “Inh. (%) of Wee1 kinase” value on Wee1 kinase (h) (C 0.01 μm) is on record as 28%. In addition, the pIC50 with LoVo cells is 6.81; in the data set with NCI-H1299 cells, 6.93. The response rate is on record as 12% in data set [1] (TP53 wild-type patients (n=33)) and 21% in data set [1] (patients with TP53 mutation (n=19)). Also, the safety and tolerability result in data set [1] (alone or in combination with chemotherapy, at a certain dose) was “safe and tolerable”. Moreover, in data set [1] (setting [2]), the partial response is recorded as 10%. For the same compound, the “stable disease as the best response” value in data set [1] (setting [2]) is on record as 53%.
For `Cc1cnc2c3nc(Nc4ccc(N5CCN(C)CC5)c(Cl)c4)ncc3c(=O)n(-c3c(Cl)cccc3Cl)n12` [Example 56, 6-(2,6-dichlorophenyl)-2-((3-chloro-4-(4-methylpiperazin-1-yl)phenyl)amino)-8-methylimidazo[1,2-b]pyrimido[4,5-d]pyridazin-5(6H)-one], at Wee1 kinase (h) (C 1 μm), the “Inh. (%) of Wee1 kinase” value turned out to be 95%. For the same compound, the values for the pIC50 in the data set on LoVo cells and with NCI-H1299 cells were 6.36 and 6.27, respectively.
As to `Cc1cn2c(n1)c1nc(Nc3ccc(N4CCN(C)CC4)c(Cl)c3)ncc1c(=O)n2-c1c(Cl)cccc1Cl` [Example 57, 6-(2,6-dichlorophenyl)-2-((3-chloro-4-(4-methylpiperazin-1-yl)phenyl)amino)-9-methylimidazo[1,2-b]pyrimido[4,5-d]pyridazin-5(6H)-one], the results for the “Inh. (%) of Wee1 kinase” value at Wee1 kinase (h) (C 0.01 μm) and on Wee1 kinase (h) (C 1 μm) were 12% and 93%, respectively. Besides, the pIC50 in the data set on LoVo cells was 6.57; with NCI-H1299 cells, 6.76.
`Cc1cn2c(n1)c1nc(Nc3ccc(N4CCC(N(C)C)CC4)c(C)c3)ncc1c(=O)n2-c1c(Cl)cccc1Cl` [Example 58, 6-(2,6-dichlorophenyl)-2-((3-methyl-4-(4-(dimethylamino)piperidin-1-yl)phenyl)amino)-9-methylimidazo[1,2-b]pyrimido[4,5-d]pyridazin-5(6H)-one]: the “Inh. (%) of Wee1 kinase” value at Wee1 kinase (h) (C 0.01 μm) is 9%. The pIC50 in the data set on LoVo cells is 6.62; in the data set with NCI-H1299 cells, 6.82.
In the case of `Cc1cn2c(n1)c1nc(Nc3cc(C)c(N4CCC(N(C)C)CC4)c(F)c3)ncc1c(=O)n2-c1c(Cl)cccc1Cl` [Example 59, 6-(2,6-dichlorophenyl)-2-((3-fluoro-5-methyl-4-(4-(dimethylamino)piperidin-1-yl)phenyl)amino)-9-methylimidazo[1,2-b]pyrimido[4,5-d]pyridazin-5(6H)-one], the “Inh. (%) of Wee1 kinase” value at Wee1 kinase (h) (C 0.01 μm) is listed as 7%. Moreover, the figures for the pIC50 in the data set with LoVo cells and in the data set with NCI-H1299 cells were 6.55 and 6.66, respectively.
For `CCc1cn2c(n1)c1nc(Nc3ccc(N4CCC(N(C)C)CC4)c(C)c3)ncc1c(=O)n2-c1c(Cl)cccc1Cl` [Example 61, 6-(2,6-dichlorophenyl)-2-((3-methyl-4-(4-(dimethylamino)piperidin-1-yl)phenyl)amino)-9-ethylimidazo[1,2-b]pyrimido[4,5-d]pyridazin-5(6H)-one], the “Inh. (%) of Wee1 kinase” value on Wee1 kinase (h) (C 0.01 μm) worked out at 12%. The pIC50 is 6.45 in the data set with LoVo cells and 6.90 in the data set with NCI-H1299 cells.
In the same order, the values of `Cc1cc(Nc2ncc3c(=O)n(-c4c(Cl)cccc4Cl)n4cc(C(C)C)nc4c3n2)ccc1N1CCC(N(C)C)CC1` [Example 62, 6-(2,6-dichlorophenyl)-2-((3-methyl-4-(4-(dimethylamino)piperidin-1-yl)phenyl)amino)-9-isopropylimidazo[1,2-b]pyrimido[4,5-d]pyridazin-5(6H)-one] are 7%, 6.21 and 6.70.

As usually defined, the pIC50 is the negative decadic logarithm of the IC50, by convention in mol/L.
